pIC50: −log10 of the molar value. Structures can show the parent of a compound that is named as a salt. Calls of active or inactive are those of the source. The rule behind the calls is not given here.
How the values were obtained:
[1] = Toxicity in female BALB/c mouse implanted with mouse orthotopic 4T1-Luc cells assessed as reduction in body weight at 1.16 mg/kg, iv administered via tail vein every 2 days for 9 times for 17 days and measured every 2 days; assay type: organism-based; conditions: in vivo, 408 h, time 17 day
[2] = Antitumor activity against mouse orthotopic 4T1-Luc cells implanted in female BALB/c mouse assessed as tumor growth inhibition at 1.16 mg/kg, iv administered via tail vein every 2 days for 9 times for 17 days and measured every 2 days relative to control; assay type: functional; conditions: 408 h, time 17 day, read-out: TGI
[3] = target: T1, Protein-arginine deiminase type-3 (Homo sapiens) (UniProt Q9ULW8); assay: Inhibition of 6His-tagged recombinant human PAD3 expressed in Escherichia coli BL21-DE3 pLysS cells using N-benzoylated arginine ethyl ester hydrochloride as substrate assessed as ratio of Kinact/Ki preincubated for 30 mins followed by substrate addition and measured after 15 mins by […] assay; conditions: time 45.0 min
T1 sequence (whole entry): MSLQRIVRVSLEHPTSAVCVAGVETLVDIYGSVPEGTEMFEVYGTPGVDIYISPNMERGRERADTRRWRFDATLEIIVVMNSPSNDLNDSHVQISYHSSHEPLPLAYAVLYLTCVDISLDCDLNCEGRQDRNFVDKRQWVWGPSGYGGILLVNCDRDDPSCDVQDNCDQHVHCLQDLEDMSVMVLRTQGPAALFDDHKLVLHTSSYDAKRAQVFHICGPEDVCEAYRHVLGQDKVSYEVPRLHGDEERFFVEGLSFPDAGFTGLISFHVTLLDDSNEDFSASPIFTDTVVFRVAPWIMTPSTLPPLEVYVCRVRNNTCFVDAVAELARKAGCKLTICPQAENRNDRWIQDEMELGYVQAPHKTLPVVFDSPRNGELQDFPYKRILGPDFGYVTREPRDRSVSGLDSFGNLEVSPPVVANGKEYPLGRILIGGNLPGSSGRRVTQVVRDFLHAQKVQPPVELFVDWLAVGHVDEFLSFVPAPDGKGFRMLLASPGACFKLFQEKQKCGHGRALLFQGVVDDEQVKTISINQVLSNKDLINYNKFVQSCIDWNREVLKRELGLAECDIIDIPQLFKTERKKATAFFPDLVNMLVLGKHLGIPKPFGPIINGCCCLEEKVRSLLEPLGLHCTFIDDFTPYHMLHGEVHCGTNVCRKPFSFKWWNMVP

[4] = AUC (0 to infinity) in male Sprague-Dawley rat at 3.5 mg/kg, iv by LC-MS/MS analysis; assay type: ADME, organism-based; conditions: in vivo
[5] = AUC (0 to t) in male Sprague-Dawley rat at 3.5 mg/kg, iv by LC-MS/MS analysis; assay type: ADME, organism-based; conditions: in vivo
[6] = target: Protein-arginine deiminase type-2 (Homo sapiens, UniProt Q9Y2J8); assay: Inhibition of PAD2 (unknown origin) using Nalpha-benzoyl-L-arginine ethyl ester as substrate preincubated for 60 mins followed by substrate addition and measured after 90 mins by colorimetric analysis
Sequence of Protein-arginine deiminase type-2 (Q9Y2J8 whole entry): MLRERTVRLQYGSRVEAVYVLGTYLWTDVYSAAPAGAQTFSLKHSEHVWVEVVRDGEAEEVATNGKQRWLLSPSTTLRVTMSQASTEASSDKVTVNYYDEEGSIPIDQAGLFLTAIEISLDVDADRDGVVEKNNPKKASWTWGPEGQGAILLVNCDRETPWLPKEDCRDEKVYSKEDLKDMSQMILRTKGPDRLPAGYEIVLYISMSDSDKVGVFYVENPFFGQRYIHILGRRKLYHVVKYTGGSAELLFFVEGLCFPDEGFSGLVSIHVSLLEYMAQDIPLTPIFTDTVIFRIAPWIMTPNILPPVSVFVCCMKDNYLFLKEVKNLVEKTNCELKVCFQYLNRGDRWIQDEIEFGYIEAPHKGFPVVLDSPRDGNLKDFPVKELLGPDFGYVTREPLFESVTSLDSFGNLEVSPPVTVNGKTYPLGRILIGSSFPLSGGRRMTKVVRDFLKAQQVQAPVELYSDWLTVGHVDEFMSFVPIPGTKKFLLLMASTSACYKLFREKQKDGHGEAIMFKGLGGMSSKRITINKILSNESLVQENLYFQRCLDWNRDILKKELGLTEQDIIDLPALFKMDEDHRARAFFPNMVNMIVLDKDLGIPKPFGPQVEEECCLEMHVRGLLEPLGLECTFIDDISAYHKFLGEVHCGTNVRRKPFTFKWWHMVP

[7] = tested on: 4T1; assay: Antiproliferative activity against mouse 4T1 cells assessed as inhibition of cell growth incubated for 48 hrs by MTT assay; assay type: functional, cell-based; conditions: 4T1, 48 h
[8] = Toxicity in female BALB/c mouse implanted with mouse orthotopic 4T1-Luc cells assessed as reduction in kidney weight at 10 mg/kg, iv administered via tail vein every 2 days for 9 times for 17 days; assay type: organism-based; conditions: in vivo, 408 h, time 17 day
[9] = tested on: MDA-MB-468; assay: Antiproliferative activity against human MDA-MB-468 cells assessed as inhibition of cell growth incubated for 48 hrs by MTT assay; assay type: functional, cell-based; conditions: MDA-MB-468, 48 h
[10] = target: Protein-arginine deiminase type-4 (Homo sapiens, UniProt Q9UM07); assay: Inhibition of PAD4 (unknown origin) using Nalpha-benzoyl-L-arginine ethyl ester as substrate preincubated for 60 mins followed by substrate addition and measured after 90 mins by colorimetric analysis
Sequence of Protein-arginine deiminase type-4 (Q9UM07 whole entry): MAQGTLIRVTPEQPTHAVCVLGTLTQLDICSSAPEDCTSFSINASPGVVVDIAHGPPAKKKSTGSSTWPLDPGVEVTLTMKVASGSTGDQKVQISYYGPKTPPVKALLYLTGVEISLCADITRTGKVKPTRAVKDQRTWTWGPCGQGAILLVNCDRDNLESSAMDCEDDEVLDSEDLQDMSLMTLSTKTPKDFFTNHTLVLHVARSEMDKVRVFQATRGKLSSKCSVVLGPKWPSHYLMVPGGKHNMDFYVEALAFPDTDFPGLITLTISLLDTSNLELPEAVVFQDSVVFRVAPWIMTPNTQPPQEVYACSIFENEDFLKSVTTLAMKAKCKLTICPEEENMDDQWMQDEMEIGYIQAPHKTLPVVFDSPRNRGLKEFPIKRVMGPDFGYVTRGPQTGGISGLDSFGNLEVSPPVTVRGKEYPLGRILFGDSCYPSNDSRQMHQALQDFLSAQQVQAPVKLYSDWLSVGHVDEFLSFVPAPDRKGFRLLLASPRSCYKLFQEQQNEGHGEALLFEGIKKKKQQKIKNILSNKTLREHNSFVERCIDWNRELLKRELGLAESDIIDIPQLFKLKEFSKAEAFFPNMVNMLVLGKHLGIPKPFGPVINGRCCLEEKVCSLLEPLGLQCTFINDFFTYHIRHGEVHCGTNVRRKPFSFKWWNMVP

[11] = target: Protein-arginine deiminase type-4 (Mus musculus) (UniProt Q9Z183); assay: Inhibition of PAD4 in BALB/c mouse bone marrow neutrophils assessed as reduction in histone H3 citrullination at 2 uM preincubated for 2 hrs followed by calcium ionophore A23187 addition and measured after 2 hrs by Hoechst 33342/Ly6G staining based laser confocal microscopic analysis; conditions: Neutrophil, time 4.0 hrs
Sequence of Protein-arginine deiminase type-4 (Mus musculus) (Q9Z183 whole entry): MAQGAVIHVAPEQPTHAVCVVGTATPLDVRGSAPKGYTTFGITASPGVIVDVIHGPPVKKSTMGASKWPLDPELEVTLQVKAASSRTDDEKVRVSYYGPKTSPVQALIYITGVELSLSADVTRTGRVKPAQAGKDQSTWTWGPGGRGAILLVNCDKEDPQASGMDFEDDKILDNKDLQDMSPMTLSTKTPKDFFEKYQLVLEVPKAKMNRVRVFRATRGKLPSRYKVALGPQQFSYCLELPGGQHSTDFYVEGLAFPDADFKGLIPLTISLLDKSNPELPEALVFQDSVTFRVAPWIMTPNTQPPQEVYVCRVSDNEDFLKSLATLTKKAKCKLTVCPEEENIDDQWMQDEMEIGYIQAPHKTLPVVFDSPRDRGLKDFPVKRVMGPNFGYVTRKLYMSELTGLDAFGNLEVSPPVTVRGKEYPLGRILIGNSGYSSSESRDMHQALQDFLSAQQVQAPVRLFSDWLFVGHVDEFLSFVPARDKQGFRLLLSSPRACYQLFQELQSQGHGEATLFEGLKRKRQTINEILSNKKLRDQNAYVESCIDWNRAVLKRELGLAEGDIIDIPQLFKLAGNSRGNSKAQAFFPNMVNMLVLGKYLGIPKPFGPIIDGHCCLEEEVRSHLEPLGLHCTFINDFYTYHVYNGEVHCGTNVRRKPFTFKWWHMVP

[12] = Cytotoxicity against human MCF-10A cells assessed as inhibition of cell growth incubated for 48 hrs by MTT assay; assay type: toxicity, cell-based
[13] = Toxicity in female BALB/c mouse implanted with mouse orthotopic 4T1-Luc cells assessed as reduction in body weight at 10 mg/kg, iv administered via tail vein every 2 days for 9 times for 17 days and measured every 2 days; assay type: organism-based; conditions: in vivo, 408 h, time 17 day
[14] = Antitumor activity against mouse orthotopic 4T1-Luc cells implanted in female BALB/c mouse assessed as tumor growth inhibition at 10 mg/kg, iv administered via tail vein every 2 days for 9 times for 17 days and measured every 2 days relative to control; assay type: functional; conditions: 408 h, time 17 day, read-out: TGI
[15] = Tmax in male Sprague-Dawley rat at 3.5 mg/kg, iv by LC-MS/MS analysis; assay type: ADME, organism-based; conditions: in vivo
[16] = target: Protein-arginine deiminase type-4 (Mus musculus) (UniProt Q9Z183); assay: Inhibition of PAD4 in BALB/c mouse bone marrow neutrophils assessed as reduction in neutrophil extracellular traps formation at 2 uM preincubated for 2 hrs followed by calcium ionophore A23187 addition and measured after 2 hrs by Hoechst 33342/Ly6G staining based laser confocal microscopic analysis; assay type: tissue-based; conditions: time 4.0 hrs
[17] = Terminal half life in male Sprague-Dawley rat at 3.5 mg/kg, iv by LC-MS/MS analysis; assay type: ADME, organism-based; conditions: in vivo
[18] = tested on: Neutrophil; assay: In vivo inhibition of PAD4 in female BALB/c mouse implanted with mouse orthotopic 4T1-Luc cells assessed as inhibition of neutrophil extracellular traps formation in tumor at 10 mg/kg, iv administered via tail vein every 2 days for 9 times for 17 days by immunohistochemical staining based analysis; assay type: functional, organism-based; conditions: time 17.0 day
[19] = tested on: Mus musculus; assay: In vivo inhibition of PAD4 in female BALB/c mouse implanted with mouse orthotopic 4T1-Luc cells assessed as inhibition of histone H3 citrullination in tumor at 10 mg/kg, iv administered via tail vein every 2 days for 9 times for 17 days by immunohistochemical staining based analysis; assay type: functional, organism-based; conditions: time 17.0 day
[20] = Toxicity in female BALB/c mouse implanted with mouse orthotopic 4T1-Luc cells assessed as reduction in liver weight at 10 mg/kg, iv administered via tail vein every 2 days for 9 times for 17 days; assay type: organism-based; conditions: in vivo, 408 h, time 17 day
[21] = Cmax in male Sprague-Dawley rat at 3.5 mg/kg, iv by LC-MS/MS analysis; assay type: ADME, organism-based; conditions: in vivo

pIC50 [6]	pIC50 [7]	pIC50 [9]	pIC50 [10]	SMILES	IC50 at 48 h [12] [µM]	further results
				COc1cccc2c1C(=O)c1c(O)c3c(c(O)c1C2=O)C[C@@](O)(C(=O)CO)C[C@@H]3O[C@H]1C[C@H](N)[C@H](O)[C@H](C)O1 [DOXORUBICIN HYDROCHLORIDE]		Activity [1]: Non-Toxic; inhibition in vivo at 1.16 mg/kg [2]: 54.6%
				N=C(CCl)NCCCC1NC(=O)N(Cc2cccc(-c3ccccc3Cl)c2)C1=O (stereo unspecified)		Ratio [3]: 15600 min⁻¹ M⁻¹
5.28	5.13	5.29	5.45	CN(C)c1ccc2cc(C(=O)N[C@@H](CCCNC(=N)CCl)C(=O)NCc3ccccc3)ccc2c1	4.3	AUC [4]: 17214.17 ng·h/mL; AUC(0-t) [5]: 14.9 ng·h/mL; Activity [8]: Toxic; inhibition [11]: Active; Activity [13]: Non-Toxic; inhibition in vivo at 10 mg/kg [14]: 36.2%; Tmax [15]: 4.8 min; inhibition [16]: Active; beta t1/2 [17]: 7.8 min; inhibition [18]: Active; inhibition [19]: Active; Activity [20]: Toxic; Cmax [21]: 251.2 ng/mL
5.53	4.96	5.40	5.99	N=C(CCl)NCCC[C@H](NC(=O)c1cc2c([nH]c3ccccc32)c(-c2ccc(F)cc2)n1)C(=O)NCc1ccccc1	7.07	
5.36	5.12	5.37	5.92	CC(C)(C)c1nc(C(=O)N[C@@H](CCCNC(=N)CCl)C(=O)NCc2ccccc2)cc2c1[nH]c1ccccc12	3.08	
< 5.00	5.84	5.50	5.03	N=C(CCl)NCCC[C@H](NC(=O)c1cc2c([nH]c3ccccc32)c(-c2nc3ccccc3[nH]2)n1)C(=O)NCc1ccccc1	3	
5.42	5.12	5.40	5.88	N=C(CCl)NCCC[C@H](NC(=O)c1cc2c([nH]c3ccccc32)c(-c2cccs2)n1)C(=O)NCc1ccccc1	8.03	
5.71	< 4.00	< 4.00	5.64	N=C(CCl)NCCC[C@H](NC(=O)c1ccc2c(c1)NCCN2)C(=O)NCc1ccccc1	> 100	
5.64	4.34	4.16	5.58	N=C(CCl)NCCC[C@H](NC(=O)c1ccc2nccnc2c1)C(=O)NCc1ccccc1	54	
5.87	5.25	5.43	5.96	CCC(CC)c1nc(C(=O)N[C@@H](CCCNC(=N)CCl)C(=O)NCc2ccccc2)cc2c1[nH]c1ccccc12	3.82	
< 5.00	5.10	5.16	5.00	Cc1ccc(-c2nc(C(=O)N[C@@H](CCCNC(=N)CCl)C(=O)NCc3ccccc3)cc3c2[nH]c2ccccc23)cc1	17.5	
